Test results reported in publication PMC6199744, “Development of Chemical Proteomics for the Folateome and Analysis of the Kinetoplastid Folateome” (ACS Infectious Diseases, 2018).

Test system: L. major lysate proteins
Assay: Multitargeted bead mixture chemoproteomics, single concentration competition, proteome-wide
Format: binding

Nc1nc2c(c(=O)[nH]1)N(C=O)C(CNc1ccc(C(=O)N[C@@H](CCC(=O)O)C(=O)O)cc1)CN2 (stereo partly drawn) [LEU, leucovorin]
fold change relative to vehicle control (protein LMJF.35.1220, SHORT CHAIN DEHYDROGENASE, PUTATIVE): 1.29
fold change relative to vehicle control (protein LMJF.35.1380, MITOCHONDRIAL PROCESSING PEPTIDASE, BETA SUBUNIT, PUTATIVE): 0.96
fold change vs vehicle control (protein LMJF.35.1830 HY[…], CONSERVED): 1.03
fold change vs vehicle control (protein LMJF.35.3340 6-phosphogluconate dehydrogenase): 1.03
fold change (protein LMJF.35.3700 GIM5A PROTEIN, PUTATIVE,GLYCOSOMAL MEMBRANE PROTEIN, vehicle control = 1): 0.87
fold change vs vehicle control (protein LMJF.35.3760 60S RIBOSOMAL PROTEIN L27A/L29, PUTATIVE): 1.05
fold change relative to vehicle control (protein LMJF.35.3840, […] 2 SUBUNIT, PUTATIVE): 1.16
fold change vs vehicle control (protein LMJF.35.3860 T-COMPLEX PROTEIN 1, ETA SUBUNIT, PUTATIVE): 0.98
fold change (protein LMJF.35.4420 MITOCHONDRIAL PHOSPHATE TRANSPORTER, PUTATIVE, vehicle control = 1): 1
fold change relative to vehicle control (protein LMJF.35.4880, HYPOTHETICAL PROTEIN, CONSERVED (TPR repeat, putative)): 1.3
fold change relative to vehicle control (protein LMJF.35.5330, ISOPENTENYL-D[…]-ISOMERASE, PUTATIVE): 1.06
fold change relative to vehicle control (protein LMJF.36.0070, STRESS-INDUCIBLE PROTEIN STI1 HOMOLOG): 1.81
fold change (protein LMJF.36.0480 HYPOTHETICAL PROTEIN, CONSERVED, vehicle control = 1): 1
fold change vs vehicle control (protein LMJF.36.0620 HYPOTHETICAL PROTEIN, CONSERVED): 0.9
fold change vs vehicle control (protein LMJF.36.0930 40S RIBOSOMAL PROTEIN S18, PUTATIVE): 1.19
fold change vs vehicle control (protein LMJF.36.0990 40S RIBOSOMAL PROTEIN S10, PUTATIVE): 0.91
fold change (protein LMJF.36.1140 SHORT CHAIN 3-HYDROXYACYL-COA DEHYDROGENASE, PUTATIVE, vehicle control = 1): 0.94
fold change relative to vehicle control (protein LMJF.36.1260, FRUCTOSE-1,6-BI[…]): 1.16
fold change (protein LMJF.36.1340 N-ACETYLTRANSFERASE SUBUNIT NAT1, PUTATIVE, vehicle control = 1): 0.92
fold change vs vehicle control (protein LMJF.36.1650 PROTEASOME BETA 5 SUBUNIT, PUTATIVE): 0.98
fold change relative to vehicle control (protein LMJF.36.2380, STEROL 24-C-METHYLTRANSFERASE, PUTATIVE): 1.04
fold change vs vehicle control (protein LMJF.36.2950 SUCCINYL-COA LIGASE GDP-FORMING] BETA-CHAIN, PUTATIVE): 0.96
fold change vs vehicle control (protein LMJF.36.3210 14-3-3 PROTEIN-LIKE PROTEIN): 1.08
fold change vs vehicle control (protein LMJF.36.3410 SHORT CHAIN DEHYDROGENASE-LIKE PROTEIN): 0.97
fold change (protein LMJF.36.3460 HYPOTHETICAL PROTEIN, CONSERVED (NIPSNAP, putative), vehicle control = 1): 0.75
fold change (protein LMJF.36.3580 HYPOTHETICAL PROTEIN, CONSERVED (Protein of unknown function (DUF2009), putative), vehicle control = 1): 0.85
fold change (protein LMJF.36.3750 40S RIBOSOMAL PROTEIN S27-1, PUTATIVE, vehicle control = 1): 0.85
fold change vs vehicle control (protein LMJF.36.3910 S-ADENOSYLHOMOCYSTEINE HYDROLASE): 0.94
fold change vs vehicle control (protein LMJF.36.5010 40S RIBOSOMAL PROTEIN SA, PUTATIVE): 1.03
fold change vs vehicle control (protein LMJF.36.5130 HY[…], CONSERVED): 1.01
fold change vs vehicle control (protein LMJF.36.5150 HYPOTHETICAL PROTEIN, CONSERVED): 0.93
fold change relative to vehicle control (protein LMJF.36.5380, NADH DEHYDROGENASE, PUTATIVE): 1.07
fold change vs vehicle control (protein LMJF.36.5390 PHOSPHORIBOSYLPYROPHOSPHATE SYNTHETASE, PUTATIVE): 0.99
fold change vs vehicle control (protein LMJF.36.5620 ISOLEUCYL-TRNA SYNTHETASE, PUTATIVE): 0.94
fold change (protein LMJF.36.6430 PROTEIN TRANSPORT PROTEIN SEC23-LIKE PROTEIN, vehicle control = 1): 1.17
fold change vs vehicle control (protein LMJF.36.6760 HYPOTHETICAL PROTEIN, CONSERVED): 0.87
fold change relative to vehicle control (protein LMJF.[…], MIT[…] BETA SUBUNIT, PUTATIVE): 1.14
fold change relative to vehicle control (protein LMJF.[…], POLY(A) EXPORT PROTEIN, PUTATIVE): 1.24
fold change (vs vehicle control, protein LINJ.20.0630 CYTIDINE TRIPHOSPHATE SYNTHASE, PUTATIVE,CTP SYNTHASE, PUTATIVE): 0.91
fold change (vs vehicle control, protein LINJ.20.1390 COATOMER BETA SUBUNIT, PUTATIVE): 0.96
fold change (vs vehicle control, protein LMJF.05.1140 VACUOLAR ATPASE SUBUNIT-LIKE PROTEIN): 0.75
fold change (vs vehicle control, protein LMJF.07.1090 DELTA-5 FATTY ACID DESATURASE): 0.88
fold change (vs vehicle control, protein LMJF.09.0220 HYPOTHETICAL PROTEIN, CONSERVED): 0.73
fold change (vs vehicle control, protein LMJF.11.1030 HYPOTHETICAL PROTEIN, CONSERVED): 0.86
fold change (vs vehicle control, protein LMJF.14.0640 FATTY ACID ELONGASE, PUTATIVE): 0.71
fold change (vs vehicle control, protein LMJF.14.0705 FATTY ACID ELONGASE, PUTATIVE): 0.92
fold change (vs vehicle control, protein LMJF.14.1120 KINESIN K39, PUTATIVE): 0.96
fold change (vs vehicle control, protein LMJF.16.1610 PROHIBITIN): 1.01
fold change (vs vehicle control, protein LMJF.17.0010 HYPOTHETICAL PROTEIN, CONSERVED): 0.94
fold change (vs vehicle control, protein LMJF.18.1130 RAS-RELATED PROTEIN RAB-5, PUTATIVE): 0.82
fold change (vs vehicle control, protein LMJF.19.1420 CYSTEINE PEPTIDASE A (CPA)): 0.84
fold change (vs vehicle control, protein LMJF.21.0280 HY[…], CONSERVED): 0.97
fold change (vs vehicle control, protein LMJF.22.1560 40S RIBOSOMAL PROTEIN L14, PUTATIVE): 0.93
fold change (vs vehicle control, protein LMJF.23.1220 T-COMPLEX PROTEIN 1, GAMMA SUBUNIT, PUTATIVE): 0.94
fold change (vs vehicle control, protein LMJF.24.0370 ASPARTATE AMINOTRANSFERASE, PUTATIVE): 0.99
fold change (vs vehicle control, protein LMJF.25.1770 ENOYL-COA REDUCTASE, PUTATIVE): 0.97
fold change (vs vehicle control, protein LMJF.26.0170 60S RIBOSOMAL PROTEIN L7, PUTATIVE): 0.85
fold change (vs vehicle control, protein LMJF.26.1550 TRI[…] ALPHA SUBUNIT, MIT[…]-LIKE PROTEIN): 1.09
fold change (vs vehicle control, protein LMJF.26.1610 PROLINE OXIDASE, MITOCHONDRIAL PRECURSOR-LIKE PROTEIN): 0.79
fold change (vs vehicle control, protein LMJF.28.1950 X-PRO, DIPEPTIDYL-PEPTIDASE,SERINE PEPTIDASE, CLAN SC, FAMILY S15, PUTATIVE): 0.96
fold change (vs vehicle control, protein LMJF.31.1070 BIOTIN/LIPOATE PROTEIN LIGASE-LIKE PROTEIN): 0.88
fold change (vs vehicle control, protein LMJF.32.1370 HY[…], CONSERVED): 0.92
fold change (vs vehicle control, protein LMJF.34.0490 IMPORTIN BETA-1 SUBUNIT, PUTATIVE): 1.14
fold change (vs vehicle control, protein LMJF.34.4060 UBIQUITIN HYDROLASE, PUTATIVE,CYSTEINE PEPTIDASE, CLAN CA, FAMILY C19, PUTATIVE): 0.88
fold change (vs vehicle control, protein LMJF.36.1600 PROTEASOME ALPHA 1 SUBUNIT, PUTATIVE): 0.98
fold change (vs vehicle control, protein LMJF.[…] RIBOSOMAL PROTEIN S7, PUTATIVE): 0.99
